What was measured:
ORYSAT (Rice, Tebonnet) = test: Preemergence herbicidal evaluation; assay type: in vivo, Oryza sativa, (L.) Tebonnet; details: rated 4-5 weeks after treatment
Method in brief: (§1)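 Scores (0–9) reflect visual comparison with control plants for stand, vigor, malformation, size and chlorosis. Compound was applied to the soil after sowing, before emergence, as an aqueous acetone spray (about 0.0156–0.500 kg/ha), and cups were kept in a greenhouse for 4–5 weeks.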

[1] = test system: ECHORC (Watergrass (Calif.)); test: Preemergence weed control under flooded paddy conditions; assay type: in vivo, Echinochloa oryzoides; details: rated 3-4 weeks after treatment
Method in brief: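 Seeds or propagules sown in top 0.5 cm of silt loam soil, flooded 1.5 to 3 cm above surface throughout. Compound in 50/50 v/v aqueous/acetone pipetted into flood water at about 0.0313 to 0.500 kg/ha. Visual 0-9 rating versus control after three to four weeks in greenhouse.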

[2] = test system: TRZAWR (Wheat, Winter, cv Riband); test: Preemergence herbicidal evaluation; assay type: in vivo, Triticum aestivum; details: rated 4-5 weeks after treatment
Method in brief: as §1

[3] = test system: TRZAWR (Wheat, Winter, cv Riband); test: Postemergence herbicidal evaluation; assay type: in vivo, Triticum aestivum; details: for Herbicidal rating TRZAWR: postemergence
Method in brief: (§2)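 Young plants, roughly two weeks from seeding, receive the active ingredient as a sprayed dispersion (acetone/water 50/50, 0.5% TWEEN 20) at 40 psi. Doses span about 0.0156 to 0.500 kg/ha. A visual score from 0 to 9 compares treated with control plants four to five weeks on.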

SETVI (Foxtail, Green) = test: Preemergence herbicidal evaluation; assay type: in vivo, Setaria viridis; details: rated 4-5 weeks after treatment
Method in brief: as §1

[4] = test system: CHEAL (Lambsquarters, Common); test: Preemergence herbicidal evaluation; assay type: in vivo, Chenopodium album; details: rated 4-5 weeks after treatment
Method in brief: as §1

MOOVA (Monochoria) = test: Preemergence weed control under flooded paddy conditions; assay type: in vivo, Monochoria vaginalis; details: rated 3-4 weeks after treatment
Method in brief: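 Greenhouse paddy assay. Acetone/water (50/50 v/v) solutions dosed into flood water, equivalent to about 0.0313 to 0.500 kg/ha active ingredient, over seeds planted 0.5 cm deep in silt loam. Score: 0-9 visual, based on stand, vigor, malformation, size and chlorosis, 3 to 4 weeks after treatment.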

[5] = test system: IPOHE (Morningglory, Ivyleaf); test: Postemergence herbicidal evaluation; assay type: in vivo, Ipomoea hederacea; details: for Herbicidal rating IPOHE: postemergence
Method in brief: as §2

ECHCG (Barnyardgrass) = test: Preemergence herbicidal evaluation; assay type: in vivo, Echinochloa crus-galli; details: rated 4-5 weeks after treatment
Method in brief: as §1

ABUTH (Velvetleaf) = test: Postemergence herbicidal evaluation; assay type: in vivo, Abutilon theophrasti; details: for Herbicidal rating ABUTH: postemergence
Method in brief: as §2

[6] = test system: IPOHE (Morningglory, Ivyleaf); test: Preemergence herbicidal evaluation; assay type: in vivo, Ipomoea hederacea; details: rated 4-5 weeks after treatment
Method in brief: as §1

CCOC(=O)CN1C(=O)C(CC(=O)O)SC1=Nc1cc(N2C(=O)CC(C(F)(F)F)CC2=O)c(F)cc1Cl (stereo not drawn) [Compound 170, 2-{{2-Chloro-5-[2,6-dioxo-4-(trifluoromethyl)-piperidino]-4-fluorophenyl}imino}-4-oxo-3,5-thiazolidinediacetic acid, 3-ethyl ester]
0.0: Preemergence herbicidal rating ORYSAT (ORYSAT (Rice, Tebonnet); 0.0156 kg/ha) | Preemergence herbicidal rating ORYSAT (ORYSAT (Rice, Tebonnet); 0.0313 kg/ha) | Preemergence herbicidal rating TRZAWR ([2]; 0.0156 kg/ha)
9.0: Preemergence herbicidal rating ORYSAT (ORYSAT (Rice, Tebonnet); 0.2500 kg/ha) | herbicidal effect rating, ECHORC ([1]; 0.0313 kg/ha) | herbicidal effect rating, ECHORC ([1]; 0.0625 kg/ha) | herbicidal effect rating, ECHORC ([1]; 0.1250 kg/ha) | herbicidal effect rating, ECHORC ([1]; 0.2500 kg/ha) | Preemergence herbicidal rating TRZAWR ([2]; 0.2500 kg/ha) | Preemergence herbicidal rating SETVI (SETVI (Foxtail, Green); 0.0156 kg/ha) | Preemergence herbicidal rating SETVI (SETVI (Foxtail, Green); 0.0313 kg/ha) | Preemergence herbicidal rating SETVI (SETVI (Foxtail, Green); 0.0625 kg/ha) | Preemergence herbicidal rating SETVI (SETVI (Foxtail, Green); 0.1250 kg/ha) | Preemergence herbicidal rating SETVI (SETVI (Foxtail, Green); 0.2500 kg/ha) | Preemergence herbicidal rating CHEAL ([4]; 0.0156 kg/ha) | Preemergence herbicidal rating CHEAL ([4]; 0.0313 kg/ha) | Preemergence herbicidal rating CHEAL ([4]; 0.0625 kg/ha) | Preemergence herbicidal rating CHEAL ([4]; 0.1250 kg/ha) | Preemergence herbicidal rating CHEAL ([4]; 0.2500 kg/ha) | herbicidal effect rating, MOOVA (MOOVA (Monochoria); 0.0313 kg/ha) | herbicidal effect rating, MOOVA (MOOVA (Monochoria); 0.0625 kg/ha) | herbicidal effect rating, MOOVA (MOOVA (Monochoria); 0.1250 kg/ha) | herbicidal effect rating, MOOVA (MOOVA (Monochoria); 0.2500 kg/ha) | Herbicidal rating IPOHE ([5]; rate 0.0156 kg/ha) | Herbicidal rating IPOHE ([5]; rate 0.0313 kg/ha) | Herbicidal rating IPOHE ([5]; rate 0.0625 kg/ha) | Preemergence herbicidal rating ECHCG (ECHCG (Barnyardgrass); 0.0313 kg/ha) | Preemergence herbicidal rating ECHCG (ECHCG (Barnyardgrass); 0.0625 kg/ha) | Preemergence herbicidal rating ECHCG (ECHCG (Barnyardgrass); 0.1250 kg/ha) | Preemergence herbicidal rating ECHCG (ECHCG (Barnyardgrass); 0.2500 kg/ha) | Herbicidal rating ABUTH (ABUTH (Velvetleaf); rate 0.0156 kg/ha) | Herbicidal rating ABUTH (ABUTH (Velvetleaf); rate 0.0313 kg/ha) | Herbicidal rating ABUTH (ABUTH (Velvetleaf); rate 0.0625 kg/ha) | Preemergence herbicidal rating IPOHE ([6]; 0.2500 kg/ha)
5.0: Herbicidal rating TRZAWR ([3]; rate 0.0625 kg/ha)
7.0: Preemergence herbicidal rating ORYSAT (ORYSAT (Rice, Tebonnet); 0.1250 kg/ha) | Preemergence herbicidal rating TRZAWR ([2]; 0.0625 kg/ha) | Preemergence herbicidal rating IPOHE ([6]; 0.0313 kg/ha) | Preemergence herbicidal rating IPOHE ([6]; 0.1250 kg/ha)
4.0: Herbicidal rating TRZAWR ([3]; rate 0.0313 kg/ha)
3.0: Preemergence herbicidal rating ECHCG (ECHCG (Barnyardgrass); 0.0156 kg/ha) | Preemergence herbicidal rating IPOHE ([6]; 0.0156 kg/ha)
3.5: Herbicidal rating TRZAWR ([3]; rate 0.0156 kg/ha)
6.0: Preemergence herbicidal rating ORYSAT (ORYSAT (Rice, Tebonnet); 0.0625 kg/ha) | Preemergence herbicidal rating TRZAWR ([2]; 0.0313 kg/ha)
8.0: Preemergence herbicidal rating TRZAWR ([2]; 0.1250 kg/ha)

COCCCN1C(=O)CSC1=Nc1cc(-n2c(=O)cc(C(F)(F)F)n(C)c2=O)c(F)cc1Cl [Compound 172, 3-{4-Chloro-2-fluoro-5-{[3-(3-methoxypropyl)-4-oxo-2-thiazolidinylidene]amino}phenyl}-1-methyl-6-(trifluoromethyl)-2,4(1H, 3H)-pyrimidinedione]
4.0: Postemergence herbicidal rating TRZAWR ([3]; Rate 0.0625 kg/ha) | Postemergence herbicidal rating TRZAWR ([3]; rate 0.0156 kg/ha) | Preemergence herbicidal rating ECHCG (ECHCG (Barnyardgrass); 0.0156 kg/ha)
3.0: Preemergence herbicidal rating TRZAWR ([2]; 0.0313 kg/ha)
7.0: Preemergence herbicidal rating ORYSAT (ORYSAT (Rice, Tebonnet); 0.0625 kg/ha) | Preemergence herbicidal rating ORYSAT (ORYSAT (Rice, Tebonnet); 0.1250 kg/ha) | Preemergence herbicidal rating TRZAWR ([2]; 0.0625 kg/ha) | Preemergence herbicidal rating TRZAWR ([2]; 0.1250 kg/ha) | Preemergence herbicidal rating SETVI (SETVI (Foxtail, Green); 0.0313 kg/ha) | Preemergence herbicidal rating IPOHE ([6]; 0.0313 kg/ha) | Preemergence herbicidal rating IPOHE ([6]; 0.0625 kg/ha)
5.0: Preemergence herbicidal rating ORYSAT (ORYSAT (Rice, Tebonnet); 0.0313 kg/ha) | Preemergence herbicidal rating SETVI (SETVI (Foxtail, Green); 0.0156 kg/ha)
9.0: herbicidal effect rating, ECHORC ([1]; 0.0625 kg/ha) | herbicidal effect rating, ECHORC ([1]; 0.1250 kg/ha) | herbicidal effect rating, ECHORC ([1]; 0.2500 kg/ha) | Preemergence herbicidal rating TRZAWR ([2]; 0.2500 kg/ha) | Preemergence herbicidal rating SETVI (SETVI (Foxtail, Green); 0.0625 kg/ha) | Preemergence herbicidal rating SETVI (SETVI (Foxtail, Green); 0.1250 kg/ha) | Preemergence herbicidal rating SETVI (SETVI (Foxtail, Green); 0.2500 kg/ha) | Preemergence herbicidal rating CHEAL ([4]; 0.0156 kg/ha) | Preemergence herbicidal rating CHEAL ([4]; 0.0313 kg/ha) | Preemergence herbicidal rating CHEAL ([4]; 0.0625 kg/ha) | Preemergence herbicidal rating CHEAL ([4]; 0.1250 kg/ha) | Preemergence herbicidal rating CHEAL ([4]; 0.2500 kg/ha) | herbicidal effect rating, MOOVA (MOOVA (Monochoria); 0.0313 kg/ha) | herbicidal effect rating, MOOVA (MOOVA (Monochoria); 0.0625 kg/ha) | herbicidal effect rating, MOOVA (MOOVA (Monochoria); 0.1250 kg/ha) | herbicidal effect rating, MOOVA (MOOVA (Monochoria); 0.2500 kg/ha) | Postemergence herbicidal rating IPOHE ([5]; Rate 0.0313 kg/ha) | Postemergence herbicidal rating IPOHE ([5]; Rate 0.0625 kg/ha) | Postemergence herbicidal rating IPOHE ([5]; rate 0.0156 kg/ha) | Preemergence herbicidal rating ECHCG (ECHCG (Barnyardgrass); 0.2500 kg/ha) | Postemergence herbicidal rating ABUTH (ABUTH (Velvetleaf); Rate 0.0313 kg/ha) | Postemergence herbicidal rating ABUTH (ABUTH (Velvetleaf); Rate 0.0625 kg/ha) | Postemergence herbicidal rating ABUTH (ABUTH (Velvetleaf); rate 0.0156 kg/ha) | Preemergence herbicidal rating IPOHE ([6]; 0.1250 kg/ha) | Preemergence herbicidal rating IPOHE ([6]; 0.2500 kg/ha)
4.5: Postemergence herbicidal rating TRZAWR ([3]; Rate 0.0313 kg/ha)
6.0: herbicidal effect rating, ECHORC ([1]; 0.0313 kg/ha) | Preemergence herbicidal rating ECHCG (ECHCG (Barnyardgrass); 0.0313 kg/ha)
2.0: Preemergence herbicidal rating ORYSAT (ORYSAT (Rice, Tebonnet); 0.0156 kg/ha) | Preemergence herbicidal rating TRZAWR ([2]; 0.0156 kg/ha) | Preemergence herbicidal rating IPOHE ([6]; 0.0156 kg/ha)
8.0: Preemergence herbicidal rating ORYSAT (ORYSAT (Rice, Tebonnet); 0.2500 kg/ha) | Preemergence herbicidal rating ECHCG (ECHCG (Barnyardgrass); 0.0625 kg/ha) | Preemergence herbicidal rating ECHCG (ECHCG (Barnyardgrass); 0.1250 kg/ha)

Source: patent publication US20020137929A1, “1 - (3-heterocyclylphenyl) isothiourea, -isourea, -guanidine and -amidine herbicidal agents” (Intellectual Property Department, BASF Aktiengesellschaft, priority 1998, published 2002)
